Values after ≈ are worked out from the molar mass of the structure shown. Read-outs that look alike come from different tables or passages of the source.
Tests used:
[1] = test system: CFPAC-1 (ductal pancreatic adenocarcinoma); test: MTT assay, CFPAC-1; type: cell-based; settings: Homo sapiens, 72 h
Method: (§1) The tested compounds were dissolved in DMSO in five, 10-fold dilutions (0.01–100 µM). The cell lines HeLa (cervical carcinoma), SW620 (colorectal adenocarcinoma, metastatic), HepG2 (hepatocellular carcinoma), CFPAC-1 (ductal pancreatic adenocarcinoma), and WI38 (human lung fibroblast cell line), were cultured as monolayers and maintained in Dulbecco’s modified Eagle medium (DMEM) supplemented with 10% fetal bovine serum (FBS), 2 mM L-glutamine, 100 U mL^−1 penicillin and 100 μg mL^−1 streptomycin in a humidified atmosphere with 5% CO2 at 37 °C.
(§2) The MTT assay was used for evaluation of effects of tested compounds on viability of carcinoma and control cell lines. About 5000 cells per well were seeded onto a series of standard 96-well plates on day 0. Test agents were then added and incubated for further 72 h. Working dilutions of tested compounds were freshly prepared in the growth medium, on the day of testing. The solvent (DMSO) was also tested for eventual inhibitory activity by adjusting its concentration to be the same as in the working concentrations (DMSO concentration never exceeded 0.1%). After 72 h of incubation, the cell growth rate was evaluated by performing the MTT assay: experimentally determined absorbance values were transformed into a cell percentage growth (PG) using the formulas proposed by NIH and described previously. This method directly relies on control cells number at the day of assay because it compares the growth of treated cells with the growth of untreated cells in control wells on the same plate, the results are therefore a percentile difference from the calculated expected value.
(§3) If, however, all of the tested concentrations produce PGs exceeding the respective reference level of effect (e.g., PG value of 50) for a given cell line, the highest tested concentration is assigned as the default value (in the screening data report that default value is preceded by a “>” sign). Each test point was performed in quadruplicate in three individual experiments. The results were statistically analyzed (Analysis of variance (ANOVA), Tukey post-hoc test at p < 0.05). Finally, the effects of the tested substances were evaluated by plotting the mean percentage growth for each cell type in comparison to control on dose response graphs.

[2] = MTT assay, WI38 healthy control; type: cell-based; settings: WI38 human lung fibroblast cells, WI38 healthy control human fibroblast cell line
Method: as §1, §2, §3

[3] = test system: HepG2 (hepatocellular carcinoma); test: MTT assay, HepG2; type: cell-based; settings: Homo sapiens, 72 h
Method: as §1, §2, §3

[4] = test system: SW620 (colorectal adenocarcinoma, metastatic); test: MTT assay, SW620; type: cell-based; settings: Homo sapiens, SW-620, 72 h
Method: as §1, §2, §3

[5] = test system: HeLa (cervical carcinoma); test: MTT assay, HeLa; type: cell-based; settings: Homo sapiens, 72 h
Method: as §1, §2, §3

[6] = test system: phospho (Tyr 1135) -IGF1 Receptor β; test: Western blot, IGF1 Receptor β activated form in HepG2 cells; type: cell-based, human; settings: IC50 concentration, 24 and 48 h treatments
Method: (§4) Protein lysates were lysed in the buffer 50 mM Tris HCl (pH 8), 150 mM NaCl, 1% NP-40, 0.5% sodium deoxycholate, 0.1% SDS and protease and phosphatase inhibitor cocktail (Roche, Basel, Switzerland). A total of 50 μg of proteins were resolved on 10% SDS polyacrylamide gels by use of Mini-protean cell (Bio-Rad, Hercules, CA, USA). Membranes were incubated with primary antibodies against phospho (Tyr 1135) -IGF1 Receptor β (1:1000, rabbit mAb, Cell Signalling Technology, Danvers, MA, USA), phospho (Ser 473) Akt (1:1000, rabbit mAb, Cell Signalling Technology) and α tubulin (1:1000, mouse mAb, Sigma Aldrich) at 4 °C overnight. Secondary antibody linked to anti-mouse was used at 1:1000 (Dako, Santa Clara, CA, USA) and to anti-rabbit at 1:1000 (Dako). Signals were visualized by Western Lightening Chemiluminescence Reagent Plus Kit (Perkin Elmer, USA) on the ImageQuant LAS500 (GE Healthcare, Chicago, IL, USA). Signal intensities of particular bands were normalized with the intensity of the loading control α tubulin and compared in Quantity One software (Bio-Rad). The values are expressed as average value of three independent experiments ± standard error of the mean. Statistical analysis was performed in Microsoft Excel (Microsoft Corporation, Redmond, WA, USA) by using the ANOVA (p < 0.05).

phospho (Ser 473) Akt [7] = test: Western blot, pAkt in HeLa cells; type: cell-based, human; settings: IC50 concentration, 24 h and 48 h
Method: as §4

phospho (Ser 473) Akt [8] = test: Western blot, pAkt in HepG2 cells; type: cell-based, human; settings: IC50 concentration, 24 h and 48 h
Method: as §4

[9] = test system: phospho (Tyr 1135) -IGF1 Receptor β; test: Western blot, IGF1 Receptor β activated form in HeLa cells; type: cell-based, human; settings: IC50 concentration, 24 and 48 h treatments
Method: as §4

[10] = test system: Saccharomyces cerevisiae ATCC 9763; test: Micro-dilution MIC assay, S. cerevisiae; type: cell-based
Method: (§5) Antimicrobial activity of compounds was evaluated in vitro on eight bacterial strains (Escherichia coli ATCC 25922 (ATCC = American Type Culture Collection, Manassas, VA, USA), Pseudomonas aeruginosa ATCC 9027, Proteus hauseri ATCC 13315, Klebsiella pneumoniae ATCC 10031, Staphylococcus aureus ATCC 6538, Bacillus subtilis ATCC 6633, Clostridium sporogenes ATCC 19404 and Micrococcus luteus ATCC 10240) and three fungi (Candida albicans ATCC 10231, Saccharomyces cerevisiae ATCC 9763 and Aspergillus brasiliensis ATCC 16404).
(§6) Micro-dilution assay was used for determination of tested compounds MIC. A serial dilution method in sterile 96-well microtitre plates was performed. Fresh Mueller–Hinton broth (for bacteria) and Sabouraud dextrose broth (for fungi) were used. In sterile physiological solution, suspensions containing 1.5 × 10^8 CFU mL^−1 for bacteria and 1.5 × 10^7 CFU mL^−1 for fungi were made (according to McFarland). One hundred microliters of broth were added to each well of the plate. Stock solutions of tested compounds were made in DMSO at concentration 10 mg mL^−1, and then 100 μL of the compound stock solution was added to each well of the first column. Double dilution was made in whole row for one tested compound, and repeated for all tested compounds in other rows. Amikacin served as positive control for bacteria, while nystatin served as positive control for fungi. The solvent (DMSO) was used as the negative control. Afterwards, each well was inoculated with 10 μL of microorganism suspension. After incubation, 24 h at 37 °C for bacteria and 48 h at 25 °C for fungi, results were read. The lowest concentration where no growth of microorganism was detected represented MIC.

[11] = test system: Staphylococcus aureus ATCC 6538; test: Micro-dilution MIC assay, S. aureus; type: cell-based; settings: ATCC6538, 24 h at 37 °C
Method: as §5, §6

[12] = test system: Klebsiella pneumoniae ATCC 10031; test: Micro-dilution MIC assay, K. pneumoniae; type: cell-based; settings: ATCC10031, 24 h at 37 °C
Method: as §5, §6

[13] = test system: Pseudomonas aeruginosa ATCC 9027; test: Micro-dilution MIC assay, P. aeruginosa; type: cell-based; settings: ATCC9027, 24 h at 37 °C
Method: as §5, §6

[14] = test system: Clostridium sporogenes ATCC 19404; test: Micro-dilution MIC assay, C. sporogenes; type: cell-based; settings: ATCC19404, 24 h at 37 °C
Method: as §5, §6

[15] = test system: Micrococcus luteus ATCC 10240; test: Micro-dilution MIC assay, M. luteus; type: cell-based; settings: ATCC10240, 24 h at 37 °C
Method: as §5, §6

[16] = test system: Escherichia coli ATCC 25922; test: Micro-dilution MIC assay, E. coli; type: cell-based; settings: ATCC25922, 24 h at 37 °C
Method: as §5, §6

[17] = test system: Candida albicans ATCC 10231; test: Micro-dilution MIC assay, C. albicans; type: cell-based
Method: as §5, §6

[18] = test system: Aspergillus brasiliensis ATCC 16404; test: Micro-dilution MIC assay, A. brasiliensis; type: cell-based; settings: A. braziliensis, 48 h at 25 °C
Method: as §5, §6

[19] = test system: Proteus hauseri ATCC 13315; test: Micro-dilution MIC assay, P. hauseri; type: cell-based; settings: ATCC13315, 24 h at 37 °C
Method: as §5, §6

[20] = test system: Bacillus subtilis ATCC 6633; test: Micro-dilution MIC assay, B. subtilis; type: cell-based; settings: ATCC6633, 24 h at 37 °C
Method: as §5, §6

[21] = Saccharomyces cerevisiae, ATCC9763, 48 h at 25 °C, read-out: MIC
[22] = Candida albicans, ATCC10231, 48 h at 25 °C, read-out: MIC
[23] = Aspergillus brasiliensis, ATCC16404, read-out: MIC

Row | SMILES | IC50 [1] [µM] | IC50 at 72 h [2] [µM] | IC50 [3] [µM] | melting point [°C] | IC50 [4] [µM] | IC50 [5] [µM] | also measured
1 | Cc1c(O)cc(C(C)C)c2oc(-c3ccccc3)nc12 [1a, 4-Methyl-2-phenyl-7-isopropyl-1,3-benzoxazole-5-ol] | 90.2 | 19.9 | 39.3 | 164 | > 100 | 32.2 | 
2 | Cc1c(O)cc(C(C)C)c2oc(-c3ccccc3O)nc12 [1b, 2-(2-Hydroxyphenyl)-4-methyl-7-isopropyl-1,3-benzoxazole-5-ol] | 31 | 29.8 | 32.3 | 172 | 43.7 | 25 | 
3 | Cc1c(O)cc(C(C)C)c2oc(-c3ccc(Br)cc3)nc12 [1d, 2-(4-Bromophenyl)-4-methyl-7-isopropyl-1,3-benzoxazole-5-ol] | 34.5 | 57.6 | 30.5 | 190 | 51.5 | 30.1 | 
4 | Cc1c(O)cc(C(C)C)c2oc(-c3ccc(Cl)cc3)nc12 [1e, 2-(4-Chlorophenyl)-4-methyl-7-isopropyl-1,3-benzoxazole-5-ol] | 49.5 | > 100 | 39.5 |  | 79.9 | 42.7 | IGF1 Receptor β activated form expression (western blot) [6]: no significant changes; inhibition of Akt phosphorylation (western blot) (phospho (Ser 473) Akt [7]): weak, time and concentration dependent inhibition; inhibition of Akt phosphorylation (western blot) (phospho (Ser 473) Akt [8]): weak, time and concentration dependent inhibition; IGF1 Receptor β activated form expression (western blot) [9]: no significant changes
5 | Cc1c(O)cc(C(C)C)c2oc(-c3ccc([N+](=O)[O-])cc3)nc12 [1g, 4-Methyl-2-(4-nitrophenyl)-7-isopropyl-1,3-benzoxazole-5-ol] | > 100 | 6.21 | > 100 | 188 | 54.9 | > 100 | 
6 | COc1ccc(-c2nc3c(C)c(O)cc(C(C)C)c3o2)cc1 [1h, 2-(4-Methoxyphenyl)-4-methyl-7-isopropyl-1,3-benzoxazole-5-ol] | 97 | 75.9 | > 100 | 178 | > 100 | > 100 | 
7 | COc1cc(-c2nc3c(C)c(O)cc(C(C)C)c3o2)ccc1O [1i, 2-(4-Hydroxy-3-methoxyphenyl)-4-methyl-7-isopropyl-1,3-benzoxazole-5-ol] | 40.6 | 9.32 | 4.58 | 168 | 55.3 | 6.38 | 
8 | Cc1c(O)cc(C(C)C)c2oc(-c3cccs3)nc12 [1j, 4-Methyl-7-isopropyl-2-(thiophene-2-yl)-1,3-benzoxazole-5-ol] | 27 | 9.97 | 7.28 | 152 | 31.6 | 10.3 | 
9 | CC1=C(N)C(=O)C(C(C)C)=CC1=O [ATQ, 3-Aminothymoquinone] | 30.9 | 9.41 | 8.26 |  | 25.8 | 15.7 | MIC [10, 21]: 220 µM (≈ 39.4 µg/mL); MIC [11]: 112 µM (≈ 20 µg/mL); MIC [12]: 435 µM (≈ 78 µg/mL); MIC [13]: 218 µM (≈ 39 µg/mL); MIC [14]: 435 µM (≈ 78 µg/mL); MIC [15]: 59.7 µM (≈ 10.7 µg/mL); MIC [16]: 112 µM (≈ 20 µg/mL); MIC [17, 22]: 1750 µM (≈ 314 µg/mL); MIC [18, 23]: 880 µM (≈ 158 µg/mL); MIC [19]: 218 µM (≈ 39 µg/mL); MIC [20]: 218 µM (≈ 39 µg/mL)
10 | NCC[C@H](O)C(=O)N[C@@H]1C[C@H](N)[C@@H](O[C@H]2O[C@H](CN)[C@@H](O)[C@H](O)[C@H]2O)[C@H](O)[C@H]1O[C@H]1O[C@H](CO)[C@@H](O)[C@H](N)[C@H]1O [Amikacin, amikacin] |  |  |  |  |  |  | MIC [11]: 18.8 µM (≈ 11 µg/mL); MIC [12]: 13.7 µM (≈ 8.03 µg/mL); MIC [13]: 85.4 µM (≈ 50 µg/mL); MIC [14]: 25.6 µM (≈ 15 µg/mL); MIC [15]: 3.42 µM (≈ 2 µg/mL); MIC [16]: 8.54 µM (≈ 5 µg/mL); MIC [19]: 11.9 µM (≈ 7 µg/mL); MIC [20]: 71.7 µM (≈ 42 µg/mL)
11 | C[C@@H]1[C@H](O)[C@@H](C)/C=C/C=C/CC/C=C/C=C/C=C/C=C/C(O[C@H]2O[C@H](C)[C@@H](O)[C@H](N)[C@@H]2O)CC2O[C@](O)(CC(O)C(O)CCC(O)CC(O)CC(O)CC(=O)O[C@H]1C)CC(O)C2C(=O)O (stereo partly shown) [Nystatin, nystatin] |  |  |  |  |  |  | MIC ([10]; 48 h at 25 °C): 1350 µM (≈ 1250 µg/mL); MIC ([17]; 48 h at 25 °C): 2700 µM (≈ 2500 µg/mL); MIC [18]: 1350 µM (≈ 1250 µg/mL)
12 | CC1=CC(=O)C(C(C)C)=CC1=O [TQ, Thymoquinone] | 48.3 | 19.8 | 24 |  | 40 | 28.9 | MIC [10, 21]: 1900 µM (≈ 312 µg/mL); MIC [11]: 29.8 µM (≈ 4.9 µg/mL); MIC [12]: 59.7 µM (≈ 9.8 µg/mL); MIC [13]: 59.7 µM (≈ 9.8 µg/mL); MIC [14]: 122 µM (≈ 20 µg/mL); MIC [15]: 59.7 µM (≈ 9.8 µg/mL); MIC [16]: 29.8 µM (≈ 4.9 µg/mL); MIC [17, 22]: 3810 µM (≈ 626 µg/mL); MIC [18, 23]: 3810 µM (≈ 626 µg/mL); MIC [19]: 29.8 µM (≈ 4.9 µg/mL); MIC [20]: 59.7 µM (≈ 9.8 µg/mL)

— article PMC6321291, “Synthesis, Biological Evaluation and Docking Studies of Benzoxazoles Derived from Thymoquinone” (Molecules, 2018)
